Source: patent US20230295087A1, “AGONISTS OF ROR GAMMAt” (BRISTOL-MYERS SQUIBB COMPANY, priority 2019, published 2023)

Biological target: T1, human RORgT (Homo sapiens, UniProt P51449)
T1 construct: expressed in transfected cells
T1 sequence (P51449 267-516): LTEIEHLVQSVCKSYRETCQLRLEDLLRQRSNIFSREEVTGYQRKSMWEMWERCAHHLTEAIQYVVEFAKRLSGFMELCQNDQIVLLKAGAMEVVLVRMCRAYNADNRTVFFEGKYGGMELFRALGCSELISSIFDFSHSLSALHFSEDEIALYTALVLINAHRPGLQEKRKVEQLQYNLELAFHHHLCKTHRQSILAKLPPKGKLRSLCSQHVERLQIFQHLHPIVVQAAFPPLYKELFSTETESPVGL
Experiment: RORgT Gal4 Luciferase Reporter Gene Assay
Assay type: cell-based
Conditions: engineered Jurkat cells overexpressing RORgT (LBD or full length) fused with Gal4 Luc reporter; 18 hours at 37° C.; luminescence
How it was run: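 Jurkat cells expressing Gal4 Luc with either RORgT LBD (aa267-516) or full-length human RORgT, 10,000 cells/well, treated with compound (40 µM to 0.67 nM final, 3-fold dilutions) for 18 h at 37° C. Steady-Glo luminescence read; inhibition of constitutive activity as % signal-window reduction relative to a control compound.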

| EC50 [nM] | Compound |
| --- | --- |
| 1.1 | O=C(C1CCS(=O)(=O)CC1)N1CC[C@@]2(S(=O)(=O)c3ccc(F)cc3)c3ccc(Oc4c(F)cccc4Cl)cc3CC[C@@H]12 [Example 38, 4-[(3aR,9bR)-7-(2-chloro-6-fluorophenoxy)-9b-(4-fluorobenzenesulfonyl)-1H,2H,3H,3aH,4H,5H,9bH-benzo[e]indole-3-carbonyl]-1λ^6-thiane-1,1-dione] |
| 7.7 | O=C(C1CCS(=O)(=O)CC1)N1CC[C@@]2(S(=O)(=O)c3ccccc3)c3ccc(OCc4c(F)cc(F)cc4Cl)cc3CC[C@@H]12 [Example 149, 4-[(3aR,9bR)-9b-(benzenesulfonyl)-7-[(2-chloro-4,6-difluorophenyl)methoxy]-1H,2H,3H,3aH,4H,5H,9bH-benzo[e]indole-3-carbonyl]-1λ^6-thiane-1,1-dione] |
| 1.9 | Cc1ccccc1Cc1ccc2c(c1)CC[C@H]1N(C(=O)C3CCS(=O)(=O)CC3)CC[C@@]21S(=O)(=O)c1ccc(F)cc1 [Example 44, 4-[(3aR,9bR)-9b-(4-fluorobenzenesulfonyl)-7-[(2-methylphenyl)methyl]-1H,2H,3H,3aH,4H,5H,9bH-benzo[e]indole-3-carbonyl]-1λ^6-thiane-1,1-dione] |
| 13 | NC(=O)N1CCC(C(=O)N2CC[C@@]3(S(=O)(=O)c4ccc(F)cc4)c4ccc(OCc5c(F)cc(F)cc5Cl)cc4CC[C@@H]23)CC1 [Example 220, 4-[(3aR,9bR)-7-[(2-chloro-4,6-difluorophenyl)methoxy]-9b-(4-fluorobenzenesulfonyl)-1H,2H,3H,3aH,4H,5H,9bH-benzo[e]indole-3-carbonyl]piperidine-1-carboxamide] |
| 40 | O=C(C1CCS(=O)(=O)C1)N1CC[C@@]2(S(=O)(=O)c3ccc(F)cc3)c3ccc(OCc4ccc(F)cc4Cl)cc3CC[C@@H]12 (stereo partly drawn) [Example 201, 3-[(3aR,9bR)-7-[(2-chloro-4-fluorophenyl)methoxy]-9b-(4-fluorobenzenesulfonyl)-1H,2H,3H,3aH,4H,5H,9bH-benzo[e]indole-3-carbonyl]-1λ^6-thiolane-1,1-dione] |
| 266 | CS(=O)(=O)CC(=O)N1CC[C@@]2(S(=O)(=O)c3ccc(F)cc3)c3ccc(OCc4cc(F)c(F)cc4Cl)cc3CC[C@@H]12 [Example 216, 1-[(3aR,9bR)-7-[(2-chloro-4,5-difluorophenyl)methoxy]-9b-(4-fluorobenzenesulfonyl)-1H,2H,3H,3aH,4H,5H,9bH-benzo[e]indol-3-yl]-2-methanesulfonylethan-1-one] |
| 17 | CS(=O)(=O)CC(=O)N1CC[C@@]2(S(=O)(=O)c3ccccc3)c3ccc(OCc4c(Cl)cccc4Cl)cc3CC[C@@H]12 [Example 69, 1-[(3aR,9bR)-9b-(benzenesulfonyl)-7-[(2,6-dichlorophenyl)methoxy]-1H,2H,3H,3aH,4H,5H,9bH-benzo[e]indol-3-yl]-2-methanesulfonylethan-1-one] |
| 42 | O=C([C@@H](O)C(F)(F)F)N1CC[C@@]2(S(=O)(=O)c3ccc(F)cc3)c3ccc(OCc4c(F)cccc4C(F)(F)F)cc3CC[C@@H]12 [Example 20, (2R)-1-[(3aR,9bR)-7-{[2-fluoro-6-(trifluoromethyl)phenyl]methoxy} -9b-(4-fluorobenzenesulfonyl)-1H,2H,3H,3aH,4H,5H,9bH-benzo[e]indol-3-yl]-3,3,3-trifluoro-2-hydroxypropan-1-one] |
| 10 | N#CCCN1C(=O)CC[C@H]1C(=O)N1CC[C@@]2(S(=O)(=O)c3ccc(F)cc3)c3ccc(OCc4c(F)cccc4Cl)cc3CC[C@@H]12 [Example 160, 3-[(2S)-2-[(3aR,9bR)-7-[(2-chloro-6-fluorophenyl)methoxy]-9b-(4-fluorobenzenesulfonyl)-1H,2H,3H,3aH,4H,5H,9bH-benzo[e]indole-3-carbonyl]-5-oxopyrrolidin-l-yl]propanenitrile] |
| 10 | O=C(O)[C@H]1CC[C@H](C(=O)N2CC[C@@]3(S(=O)(=O)c4ccc(F)cc4)c4ccc(Oc5c(F)cccc5C(F)(F)F)cc4CC[C@@H]23)CC1 [Example 4, (1R,4r)-4-((3aR,9bR)-7-(2-fluoro-6-(trifluoromethyl)phenoxy)-9b-((4-fluorophenyl)sulfonyl)-2,3,3a,4,5,9b-hexahydro-1H-benzo[e]indole-3-carbonyl)cyclohexane-1-carboxylic acid] |
| 1.4 | O=C(O)[C@H]1CC[C@H](C(=O)N2CC[C@@]3(S(=O)(=O)c4ccc(F)cc4)c4ccc(Sc5c(Cl)cccc5Cl)cc4CC[C@@H]23)CC1 [Example 119, (1r,4r)-4-[(3aR,9bR)-7-[(2,6-dichlorophenyl)sulfanyl]-9b-(4-fluorobenzenesulfonyl)-1H,2H,3H,3aH,4H,5H,9bH-benzo[e]indole-3-carbonyl]cyclohexane-1-carboxylic acid] |
| 6.1 | CN1C(=O)CC[C@H]1C(=O)N1CC[C@@]2(S(=O)(=O)c3ccccc3)c3ccc(OCc4c(F)cccc4Cl)cc3CC[C@@H]12 [Example 150, (5S)-5-[(3aR,9bR)-9b-(benzenesulfonyl)-7-[(2-chloro-6-fluorophenyl)methoxy]-1H,2H,3H,3aH,4H,5H,9bH-benzo[e]indole-3-carbonyl]-1-methylpyrrolidin-2-one] |
| 111 | COC(=O)[C@H]1CC[C@H](C(=O)N2CC[C@@]3(S(=O)(=O)c4ccc(F)cc4)c4ccc(OCc5cc(Cl)ccc5Cl)cc4CC[C@@H]23)CC1 [Example 203, methyl (1r,4r)-4-[(3aR,9bR)-7-[(2,5-dichlorophenyl)methoxy] -9b-(4-fluorobenzenesulfonyl)-1H,2H,3H,3aH,4H,5H,9bH-benzo[e]indole-3-carbonyl] cyclohexane-1-carboxylate] |
| 19 | CS(=O)(=O)N1CC(C(=O)N2CC[C@@]3(S(=O)(=O)c4ccccc4)c4ccc(OCc5c(Cl)cccc5Cl)cc4CC[C@@H]23)C1 [Example 98, 3-[(3aR,9bR)-9b-(benzenesulfonyl)-7-[(2,6-dichlorophenyl)methoxy]-1H,2H,3H,3aH,4H,5H,9bH-benzo[e]indole-3-carbonyl]-1-methanesulfonylazetidine] |
| 620 | CC(C)S(=O)(=O)CC(=O)N1CC[C@@]2(S(=O)(=O)c3ccccc3)c3ccc(OCc4c(Cl)cccc4Cl)cc3CC[C@@H]12 [Example 102, 1-[(3aR,9bR)-9b-(benzenesulfonyl)-7-[(2,6-dichlorophenyl)methoxy]-1H,2H,3H,3aH,4H,5H,9bH-benzo[e]indol-3-yl]-2-(propane-2-sulfonyl)ethan-1-one] |
| 24 | CC(=O)N1CCC(C)(CN2CC[C@@]3(S(=O)(=O)c4ccc(F)cc4)c4ccc(OCc5c(F)cccc5C(F)(F)F)cc4CC[C@@H]23)CC1 [Example 52, 1-(4-{[(3aR,9bR)-7-{[2-fluoro-6-(trifluoromethyl)phenyl]methoxy} -9b-(4-fluorobenzenesulfonyl)-1H,2H3H,3aH,4H,5H,9bH-benzo[e]indol-3-yl]methyl}-4-methylpiperidin-1-yl)ethan-1-one] |
| 75 | CS(=O)(=O)CC(=O)N1CC[C@@]2(S(=O)(=O)c3ccc(F)cc3)c3ccc(OCc4c(F)cccc4C(F)(F)F)cc3CC[C@@H]12 [Example 188, 1-[(3aR,9bR)-7-{[2-fluoro-6-(trifluoromethyl)phenyl]methoxy}-9b-(4-fluorobenzenesulfonyl)-1H,2H,3H,3aH,4H,5H,9bH-benzo[e]indol-3-yl]-2-methanesulfonylethan-1-one] |
| 15 | O=C(N1CCS(=O)(=O)CC1)N1CC[C@@]2(S(=O)(=O)c3ccccc3)c3ccc(OCc4c(Cl)cccc4Cl)cc3CC[C@@H]12 [Example 84, 4-[(3aR,9bR)-9b-(benzenesulfonyl)-7-[(2,6-dichlorophenyl)methoxy]-1H,2H,3H,3aH,4H,5H,9bH-benzo[e]indole-3-carbonyl]-1λ^6-thiomorpholine-1,1-dione] |
| 8.6 | O=C(C1CCS(=O)(=O)CC1)N1CC[C@@]2(S(=O)(=O)c3ccccc3)c3ccc(OCc4c(F)ccc(F)c4Cl)cc3CC[C@@H]12 [Example 131, 4-[(3aR,9bR)-9b-(benzenesulfonyl)-7-[(2-chloro-3,6-difluorophenyl)methoxy]-1H,2H,3H,3aH,4H,5H,9bH-benzo[e]indole-3-carbonyl]-1λ^6-thiane-1,1-dione] |
| 66 | O=C(CC1CCS(=O)(=O)CC1)N1CC[C@@]2(S(=O)(=O)c3ccccc3)c3ccc(OCc4c(Cl)cccc4Cl)cc3CC[C@@H]12 [Example 56, 4-{2-[(3aR,9bR)-9b-(benzenesulfonyl)-7-[(2,6-dichlorophenyl)methoxy]-1H,2H,3H,3aH,4H,5H,9bH-benzo[e]indol-3-yl]-2-oxoethyl}-1λ^6-thiane-1,1-dione] |
| 7.5 | O=C(C1CCS(=O)(=O)CC1)N1CC[C@@]2(S(=O)(=O)c3ccc(F)cc3)c3ccc(OCc4cc(Cl)ccc4Cl)cc3CC[C@@H]12 [Example 200, 4-[(3aR,9bR)-7-[(2,5-dichlorophenyl)methoxy]-9b-(4-fluorobenzenesulfonyl)-1H,2H,3H,3aH,4H,5H,9bH-benzo[e]indole-3-carbonyl]-1λ^6-thiane-1,1-dione] |
| 19 | NC(=O)N1CCC(C(=O)N2CC[C@@]3(S(=O)(=O)c4ccc(F)cc4)c4ccc(OCc5c(Cl)cccc5Cl)cc4CC[C@@H]23)CC1 [Example 172, 4-[(3aR,9bR)-7-[(2,6-dichlorophenyl)methoxy]-9b-(4-fluorobenzenesulfonyl)-1H,2H,3H,3aH,4H,5H,9bH-benzo[e]indole-3-carbonyl]piperidine-1-carboxamide] |
| 15 | NC(=O)N1CCC(C(=O)N2CC[C@@]3(S(=O)(=O)c4ccccc4)c4ccc(OCc5c(Cl)cccc5Cl)cc4CC[C@@H]23)CC1 [Example 62, 4-[(3aR,9bR)-9b-(benzenesulfonyl)-7-[(2,6-dichlorophenyl)methoxy]-1H,2H,3H,3aH,4H,5H,9bH-benzo[e]indole-3-carbonyl]piperidine-1-carboxamide] |
